B1: GDNF: glial cell-derived neurotrophic factor, neuroprotector used as reference (protein, UniProt P39905 78-211, looked up)
Glial cell line-derived …: SPDKQMAVLPRRERNRQAAAANPENSRGKGRRGQRGKNRGCVLTAIHLNVTDLGLGYETKEELIFRYCSGSCDAAETTYDKILKNLSRNRRLVSDKVGQACCRPIAFDDDLSFLDDNLVYHILRKHSAKRCGCI

Columns and labels:
[1] = test system: amyloid beta 1-42 (Abeta 1-42)-induced model of Alzheimer's disease in frontal cortex cultures of mouse neurons; test: Rescue of amyloid beta 1-42-induced functional effects on neuronal networks, phenotypic MEA screening (Example 8); type: cell-based
[2] = test system: MPP^+-treated mouse ventral midbrain/cortex co-cultures; test: Prevention/rescue efficacy on MPP+-induced neuronal networks, phenotypic MEA screening (Example 7); type: cell-based
Description: The prevention/rescue efficacy of nanoparticles of the invention was tested on MPP^+-treated mouse ventral midbrain/cortex co-cultures, cultured on a 48-wells MEA for 3 weeks. This model represents an in vitro Parkinson's model for screening compounds, based on the functional rescue of dopaminergic neurons using challenged midbrain/cortex cultures growing on MEAs. Midbrain is a region of the brain including the substantia nigra which is part of the basal ganglia and which contains most of the dopaminergic neurons. The evaluation of the nanoparticles' prevention/rescue effect was performed via the measurement of the extracellular electrical activity of the co-culture of neurons plated on Microelectrode Array (MEA) chips. […]
Midbrain and frontal cortex tissue was harvested from embryonic day 14.5 chr:NMRI mice (Charles River). […] Tissue was dissociated by enzymatic digestion (133.3 Kunitz units/ml DNase; 10 Units/ml Papain) and mechanical trituration, counted, vitality controlled, and plated in a 20 μl drop of DMEM containing laminin (10 μg/ml), 10% fetal bovine serum and 10% horse serum on MEAs. Cultures on MEAs were incubated at 37° C. in a 10% CO2 atmosphere until ready for use. […]
At day 21, 120 minutes of neuronal activity were recorded, and 30 minutes of stable activity were analyzed (FIG. 6). […]
Each unit represents the activity originating from one neuron recorded at one electrode. […]

| Molecule | Effect Score ([1]; Abeta 1-42 100 nM at T0, nanoparticles (800 μM; [BaTiO3]=2000 μM) or donepezil 300 nM at T0+4 h, Control=0, Abeta group=1, 15 of 204 parameters) | Rescue efficacy ([1]; same treatment as Effect Score, Control set at 100%, Abeta group 0%) | Effect Score ([2]; nanoparticles ([Au] or [Si]=800 μM; [BaTiO3]=2000 μM) or GDNF 20 ng/ml at day 7, MPP+ 20 μM at day 8, recording at day 21, Control=0, MPP+ group=1, 18 of 204 parameters) | Prevention/rescue efficacy ([2]; same treatment as Effect Score, Control set at 100%, MPP+ group 0%) |
| --- | --- | --- | --- | --- |
| COc1cc2c(cc1OC)C(=O)C(CC1CCN(Cc3ccccc3)CC1)C2 (stereo not shown) [Donepezil, donepezil] | 0.46 | 54% |  |  |
| B1 |  |  | 0.44 | 56% |

From patent US11497717B2, “Nanoparticles for use for treating a neuronal disorder” (NANOBIOTIX S.A., priority 2017, dated 2022)
